The values that follow come from ChEMBL document CHEMBL1201862, “PubChem BioAssay data set” (2004).

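Where inhibition never reached the appropriate level, the endpoint shown equals the highest concentration tested. Otherwise, values were interpolated linearly from a five-concentration, 48-hour dose response in 96-well plates. GI50: concentration for 50% inhibition of growth.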 Calls of active or inactive are those of the source. No stated cut-off is given here; in the data, active = GI50 up to about 1.1 µM and inactive = higher.

What all share (test): NCI tumour cell line growth inhibition, 48 h
Test [1] deals with TK-10.
The subject of test [2] is EKVX.
In test [3] the test system is IGROV-1.
The test system of test [4] is OVCAR-3.
Test [5] has as its system SK-MEL-5.
Test [6] deals with NCI-H460.
The subject of test [7] is RXF 393.
Test [8] deals with MOLT-4.
The test system of test [9] is CAKI-1.
Test [10] deals with UACC-257.
For test [11], the system named is SF-295.
The test system of test [12] is SK-OV-3.
Test [13] relates to SK-MEL-2.
Test [14] concerns SNB-78.
For test [15], the system named is Malme-3M.
Test [16] relates to M14.
For test [17], the system named is SNB-75.
In test [18] the test system is RPMI-8226.
Test [19] relates to 786-0.

Regarding `COc1ccc(C(=O)O/N=C2/CCC/C2=C\c2ccccc2)cc1`, the GI50 in [1] was > 91.6 µM (inactive); in test [2] it was > 100 µM (inactive); in test [3] it was > 73.6 µM (inactive); in test [4] it was > 100 µM (inactive); in test [5] it was > 100 µM (inactive); in test [6], > 100 µM (inactive). Further, the GI50 in test [7] is > 83 µM (inactive); in test [8], > 100 µM (inactive); in test [9], > 100 µM (inactive); in [10], > 100 µM (inactive); in test [11], > 65.8 µM (inactive); in test [12] it was > 100 µM (inactive). Also, the GI50 in [13] is > 100 µM (inactive); in [14], > 68.5 µM (inactive); in [15] it was > 100 µM (inactive); in [16] it was > 100 µM (inactive); in test [17], > 43.3 µM (inactive); in test [18], > 100 µM (inactive). In addition, in [19], the GI50 is > 72.3 µM (inactive).
Consider `COC1=CC(O)(CC(N)=O)c2ccccc2C1=O` (stereo not drawn), for which the GI50 in test [1], in test [2], in test [3], in test [4], in test [5] and in test [6] was > 100 µM (inactive) in each case. Further, the GI50 in [7], in test [8], in test [9], in test [10], in test [11] and in test [12] was > 100 µM (inactive) throughout. Further, the GI50 in test [13], in test [14], in test [15], in [16], in [17] and in test [18] was > 100 µM (inactive) each time. Also, in test [19], the GI50 was > 100 µM (inactive).
On to `O=C(Cc1nc2ccccc2o1)C(=O)Nc1ccc(Cl)cc1Cl`, for which the GI50 in test [2], in [3], in test [4], in test [6], in [7] and in [9] was > 100 µM (inactive) each time. For the same molecule, the GI50 in [10], in test [11], in [12], in test [13], in test [14] and in test [15] was > 100 µM (inactive) in each case. Moreover, the GI50 was > 100 µM (inactive) in [16], 49.2 µM (inactive) in test [17], > 100 µM (inactive) in [18] and > 100 µM (inactive) in test [19].
On to `CC(=O)NC(CCCCNC(=O)OCc1ccccc1)C(=O)NCc1ccccc1` (stereo not drawn), for which the GI50 in [1], in test [2], in test [3], in [4], in [5] and in test [6] was > 100 µM (inactive) each time. Moreover, the GI50 in [7], in test [8], in test [9], in test [10], in [11] and in test [12] was > 100 µM (inactive) throughout. The GI50 in test [13] is > 100 µM (inactive); in [14] it was 88.9 µM (inactive); in [15], > 100 µM (inactive); in [16] it was > 100 µM (inactive); in test [17] it was 31.7 µM (inactive); in [18], > 100 µM (inactive). Besides, the GI50 in test [19] was > 100 µM (inactive).
Turning to `CC(C)c1cccc(C(C)C)c1N1C(=O)C(=O)C(c2nc3ccccc3o2)C(=O)C1=O`, the GI50 is > 100 µM (inactive) in [1]; > 100 µM (inactive) in test [2]; > 100 µM (inactive) in [3]; 33.7 µM (inactive) in [4]; 38.5 µM (inactive) in test [5]; > 100 µM (inactive) in test [6]. Besides, the GI50 was 92.3 µM (inactive) in [7]; 40.5 µM (inactive) in test [9]; > 100 µM (inactive) in [10]; > 100 µM (inactive) in test [11]; > 100 µM (inactive) in test [12]; > 100 µM (inactive) in test [13]. For the same molecule, the GI50 was > 100 µM (inactive) in [14]; 91.4 µM (inactive) in test [15]; 55.8 µM (inactive) in test [16]; 26.2 µM (inactive) in test [17]; 35.4 µM (inactive) in test [18]; 14.4 µM (inactive) in test [19].
For the molecule `CCSc1nc(-c2ccc(OC)cc2)c(C#N)c(=O)n1C1OCC(OC(C)=O)C(OC(C)=O)C1OC(C)=O` (stereo not drawn), the GI50 was > 100 µM (inactive) in test [1]; > 100 µM (inactive) in test [2]; 77.8 µM (inactive) in test [3]; 93.3 µM (inactive) in test [5]; > 100 µM (inactive) in test [6]; > 100 µM (inactive) in [7]. Moreover, the GI50 in test [8] was 43.5 µM (inactive); in test [9] it was > 100 µM (inactive); in test [10], > 100 µM (inactive); in test [11], > 100 µM (inactive); in [12], > 100 µM (inactive); in test [13], > 100 µM (inactive). Further, the GI50 in [14] is > 100 µM (inactive); in test [15] it was > 100 µM (inactive); in test [16] it was > 100 µM (inactive); in test [17] it was 65.6 µM (inactive); in test [18], 78.5 µM (inactive); in test [19], > 100 µM (inactive).
Turning to `CC(C)(C)c1ccc2c(c1)S(=O)(=O)Nc1ccccc1NS(=O)(=O)c1cc(C(C)(C)C)ccc1OCCOCCOCCO2`, the GI50 is > 100 µM (inactive) in [1]; 71.8 µM (inactive) in test [2]; > 100 µM (inactive) in [3]; > 100 µM (inactive) in test [4]; 93.8 µM (inactive) in test [5]; > 100 µM (inactive) in test [6]. Also, the GI50 in [7] was 45.5 µM (inactive); in test [8] it was > 100 µM (inactive); in [9], 97.9 µM (inactive); in test [10] it was > 100 µM (inactive); in [11], 71 µM (inactive); in test [12], 81.1 µM (inactive). In addition, the GI50 in test [13] is > 100 µM (inactive); in test [14], 59.8 µM (inactive); in test [15] it was 33.5 µM (inactive); in [16], > 100 µM (inactive); in test [17], 39.2 µM (inactive); in test [19], > 100 µM (inactive).
As for `N/C(=N\O)N/N=C\c1c2ccccc2c(Cl)c2ccccc12`, the GI50 in [1] was 11.8 µM (inactive); in test [2] it was 3.03 µM (inactive); in test [3] it was 3.38 µM (inactive); in test [4] it was 3.47 µM (inactive); in [5], 5 µM (inactive); in test [6], 2.23 µM (inactive). The GI50 is 1.22 µM (inactive) in test [7]; 4.18 µM (inactive) in test [8]; 5.52 µM (inactive) in test [9]; 1.42 µM (inactive) in test [10]; 2.75 µM (inactive) in [11]; 2.57 µM (inactive) in test [12]. Besides, the GI50 in [13] was 10.5 µM (inactive); in [14], 12 µM (inactive); in [15] it was 4.6 µM (inactive); in test [16], 12.1 µM (inactive); in [17] it was 12.7 µM (inactive); in [18], 3.3 µM (inactive). Besides, in test [19], the GI50 was 12.6 µM (inactive).
Take `O=C1c2ccccc2C2(O)c3cc4ccccc4cc3OC12O` (stereo not drawn): the GI50 in test [1] was > 100 µM (inactive); in test [2], 41.7 µM (inactive); in [3], 85.7 µM (inactive); in test [4], 53.6 µM (inactive); in test [5], 30.1 µM (inactive); in [6] it was 76.7 µM (inactive). Further, the GI50 is 29.2 µM (inactive) in [7]; 37.7 µM (inactive) in [8]; 62.7 µM (inactive) in test [9]; 30 µM (inactive) in test [10]; 34.2 µM (inactive) in test [11]; > 100 µM (inactive) in test [12]. Also, the GI50 in test [13] was 47.3 µM (inactive); in [14], 46.7 µM (inactive); in [15], 47.1 µM (inactive); in test [16], 56.9 µM (inactive); in [17] it was 49.3 µM (inactive); in test [18], 34 µM (inactive). Also, the GI50 in test [19] is > 100 µM (inactive).
Regarding `O=Cc1cc2c(s1)C(=O)c1sccc1C2=O`, the GI50 in test [1] is 1.92 µM (inactive); in [2], 1.61 µM (inactive); in test [3], 1.49 µM (inactive); in [4], 0.222 µM (active); in test [5], 0.129 µM (active); in test [6] it was 1.32 µM (inactive). Also, the GI50 in test [7] was 0.337 µM (active); in test [8], 1.23 µM (inactive); in test [9], 1.77 µM (inactive); in test [10] it was 0.345 µM (active); in test [11] it was 0.169 µM (active); in test [12], 2.15 µM (inactive). Besides, the GI50 in test [13] was 0.337 µM (active); in test [14] it was 1.41 µM (inactive); in [15], 0.368 µM (active); in [16] it was 0.0403 µM (active); in test [17], 0.19 µM (active); in [18] it was 0.309 µM (active). In test [19], the GI50 is 1.03 µM (active).
For the molecule `CCOC(=O)/C(=C\c1ccc(O)c(OC)c1)C(=O)c1ccccc1`, the GI50 is 25.9 µM (inactive) in [1]; > 38.9 µM (inactive) in test [2]; 19.2 µM (inactive) in [3]; 26.9 µM (inactive) in test [4]; 13.3 µM (inactive) in [5]; 22.2 µM (inactive) in test [6]. Moreover, the GI50 was 22.7 µM (inactive) in test [7]; 12.4 µM (inactive) in test [8]; 23.9 µM (inactive) in [9]; 18.4 µM (inactive) in test [10]; 18.9 µM (inactive) in test [11]; > 42.8 µM (inactive) in test [12]. Besides, the GI50 in [13] was 12.5 µM (inactive); in [14] it was 2.56 µM (inactive); in [15] it was 18.6 µM (inactive); in [16] it was 19.1 µM (inactive); in test [17] it was 20.2 µM (inactive); in test [18] it was 9.77 µM (inactive). For the same molecule, in test [19], the GI50 was 16.7 µM (inactive).
